From patent US20240016781A1, “TREATMENT OF KRAS MUTANT CANCERS” (MEI Pharma, Inc., priority 2020, published 2024)
Read-outs that look alike come from different tables or passages of the source.

Tests used:
Experiment in all cases: 72-hour CellTiter-Glo 2.0 growth inhibition screen (single agent, 9x9 combination dose matrix)
Assay type in all cases: cell-based
HPAF-II = conditions: for Response Area / EC50 / Emax: HPAF-II, Pancreas; for EC50 / Emax: Homo sapiens
Experimental: (§1) Growth inhibition was determined using a 72-hour CellTiter-Glo®2.0 proliferation assay. Combination format was a 9×9 dose matrix. Six of the 20 cell lines received the original two combinations whilst the remaining 14 cell lines received two additional combinations resulting in four combinations in total. Results have been supplied as both Chalice Analyzer files (.mcc) and raw luminescence data.
(§2) Cell lines that have been preserved in liquid nitrogen are thawed and expanded in growth media (see Appendix I). Once cells have reached expected doubling times, screening begins. Cells are seeded in 25 μl of growth media in black 384-well tissue culture treated plates at 500 cells per well (as noted in Analyzer). Cells are equilibrated in assay plates via centrifugation and placed at 37° C. 5% CO2 for twenty-four hours before treatment. […] Compounds are transferred to assay plates using and Echo acoustic liquid handling system. […] of each compound was added at the appropriate concentration for all combination dose points. Therefore, final assay volume would be 25.05 μl. Assay plates are incubated with compound for 3 days and are then analyzed using CellTiter-Glo 2.0. All data points are collected via automated processes and are subject to quality control and analyzed.
(§3) If T≥V_0:100*(1−(T−V_0)/(V−V_0)) • where T is the signal measure for a test article, V is the untreated/vehicle-treated control measure, and Vo is the untreated/vehicle control measure at time zero (also colloquially referred as TO plates). This formula is derived from the Growth Inhibition calculation used in the National Cancer Institute's NCI-60 high throughput screen. For the purposes of this disclosure, all data analysis was performed in Growth Inhibition (except where noted).
(§4) Inhibition is also provided as a measure of cell viability. […] Inhibition of 100% represents no doubling of cell numbers during the treatment window. Both cytostatic and cytotoxic treatments can yield an Inhibition percentage of 100%. Inhibition percentage is calculated as the following: […]
(§5) The fractional inhibition for each component agent and combination point in the matrix is calculated relative to the median of all untreated/vehicle-treated control wells. The Synergy Score equation integrates the experimentally-observed activity volume at each point in the matrix in excess of a model surface numerically derived from the activity of the component agents using the Loewe model for additivity. Additional terms in the Synergy Score equation (above) are used to normalize for various dilution factors used for individual agents and to allow for comparison of synergy scores across an entire experiment. The inclusion of positive inhibition gating or an Idata multiplier removes noise near the zero-effect level, and biases results for synergistic interactions at that occur at high activity levels. Combinations with higher maximum Growth Inhibition (GI) effects or those which are synergistic at low concentrations will have higher Synergy Scores.
(§6) The CI is a rough estimate of how much drug was needed in combination relative to the single agent doses required to achieve the chosen effect level. CI values in the range of 0.5-0.7 are typical for in vitro measurements of current clinical combinations. The CI error (σCI) is calculated using standard error propagation through the CI calculation based on the isobologram errors. In the Chalice Analyzer, the Best CI is reported from the many CI values calculated for each Icut crossing combination. Among all the measured CI values, the one with the largest single-to-noise level (1−CI)/σCI is reported as the Best CI. Best CI Level is the effect level from which the CI is calculated.

HCC44 = conditions: for Response Area / EC50 / Emax: HCC44, Lung; for EC50 / Emax: Homo sapiens; for EC50: HCC44, 72 h
Experimental: as §1, §2, §3, §4, §5, §6

NCI-H358 = conditions: for EC50: NCI-H358, 72 h
Experimental: as §1, §2, §3, §4, §5, §6

HCC1171 = system: HCC1171
Experimental: as §1, §2, §3, §4, §5, §6

TOV-21G = system: TOV-21G
Experimental: as §1, §2, §3, §4, §5, §6

[1] = HPAF-II (KRAS G12D), enhancer + MEI-522 (Voruciclib), 72 h
[2] = Additional Single Agent Responses (inhibition, % I), 72 h
[3] = growth inhibition (GI), AUC, single agent, 72 h
[4] = Additional Single Agent Responses, 72 h, read-out: Max Response (% I)
[5] = growth inhibition (GI), single agent, 72 h, read-out: Max Response (% GI)
[6] = enhancer combined with MEI-522 (Voruciclib), HPAF-II (Pancreas), 72 hours, inhibition data
[7] = HCC44 (KRAS G12C), enhancer + MEI-522 (Voruciclib), 72 h
[8] = enhancer combined with MEI-522 (Voruciclib), HCC44 (Lung), 72 hours, inhibition data
[9] = NCl-H358 (KRAS G12C), enhancer + MEI-522 (Voruciclib), 72 h
[10] = enhancer combined with MEI-522 (Voruciclib), NCl-H358 (Lung), 72 hours, inhibition data
[11] = HCC1171 (KRAS G12C), enhancer + MEI-522 (Voruciclib), 72 h
[12] = HCC1171, Lung, Additional Single Agent Responses (inhibition, % I), 72 h
[13] = enhancer combined with MEI-522 (Voruciclib), HCC1171 (Lung), 72 hours, inhibition data
[14] = TOV-21G (KRAS G13C), enhancer + MEI-522 (Voruciclib), 72 h
[15] = enhancer combined with MEI-522 (Voruciclib), TOV-21G (Ovary), 72 hours, inhibition data

For `C=CC(=O)N1CCN(c2nc(=O)n(-c3c(C)ccnc3C(C)C)c3nc(-c4c(O)cccc4F)c(F)cc23)[C@@H](C)C1` [AMG510], the “Best CI” value (HPAF-II; [1]) was 0.06, the “Bliss Volume” value (HPAF-II; [1]) was −3.31 and the HSA volume (HPAF-II; [1]) was −4.44. For the same compound, the “Loewe Volume” value (HPAF-II; [1]) was −3.46, the “Synergy Score” value (HPAF-II; [1]) was 0.12 and the “Response Area” value (HPAF-II; [2]) was 0.32. The “Response Area” value (HPAF-II; [3]) was 0.47, the EC50 (HPAF-II; 72 h, Additional Single Agent Responses (inhibition, % I)) was 2400 nM and the EC50 (HPAF-II; 72 h, growth inhibition (GI) curve, single agent) was 2540 nM. For the same compound, the Emax (HPAF-II; [4]) was 11%, the Emax (HPAF-II; [5]) was 15% and the “Best CI” value (HPAF-II; [6]) was 1.03. For the same compound, the “Bliss Volume” value (HPAF-II; [6]) was −2.30, the HSA volume (HPAF-II; [6]) was −3.13 and the “Loewe Volume” value (HPAF-II; [6]) was −2.28. For the same compound, the “Synergy Score” value (HPAF-II; [6]) was 0.09, the Best CI Level (HPAF-II; enhancer combined with MEI-522 (Voruciclib), HPAF-II (Pancreas), 72 hours, inhibition data, unit assumed) was 20% and the “Best CI” value (HCC44; [7]) was 0.63. For the same compound, the “Bliss Volume” value (HCC44; [7]) was 2.46, the HSA volume (HCC44; [7]) was 2.64 and the “Loewe Volume” value (HCC44; [7]) was 2.30. The “Synergy Score” value (HCC44; [7]) was 4.36, the “Response Area” value (HCC44; [2]) was 1.52 and the “Response Area” value (HCC44; [3]) was 1.97. For the same compound, the EC50 (HCC44; [2]) was 4.1 nM, the EC50 (HCC44; growth inhibition (GI) curve, single agent, 72 h) was 4.6 nM and the Emax (HCC44; [4]) was 32%. The Emax (HCC44; [5]) was 41%, the “Best CI” value (HCC44; [8]) was 0.67 and the “Bliss Volume” value (HCC44; [8]) was −0.82. The HSA volume (HCC44; [8]) was 1.08, the “Loewe Volume” value (HCC44; [8]) was 0.97 and the “Synergy Score” value (HCC44; [8]) was 1.16. It also gave a Best CI Level (HCC44; enhancer combined with MEI-522 (Voruciclib), HCC44 (Lung), 72 hours, inhibition data, unit assumed) of 45%, an EC50 (NCI-H358; Homo sapiens, NCl-H358, Lung, Additional Single Agent Responses (inhibition, % I), 72 h) of 8.5 nM and an EC50 (NCI-H358; Homo sapiens, NCl-H358, Lung, growth inhibition (GI) curve, single agent, 72 h) of 9.4 nM. For the same compound, the IC50 (NCI-H358; Homo sapiens, NCI-H358, NCl-H358, Lung, Additional Single Agent Responses (inhibition, % I), 72 h) was 14.2 nM, the Emax (NCI-H358; Homo sapiens, NCI-H358, NCl-H358, Lung, Additional Single Agent Responses, 72 h, read-out: Max Response (% I)) was 79% and the GI50 (NCI-H358; Homo sapiens, NCI-H358, NCl-H358, Lung, growth inhibition (GI) curve, single agent, 72 h) was 8.8 nM. For the same compound, the Emax (NCI-H358; Homo sapiens, NCI-H358, NCl-H358, Lung, growth inhibition (GI), single agent, 72 h, read-out: Max Response (% GI)) was 108%, the “Best CI” value (NCI-H358; [9]) was 0.51 and the “Bliss Volume” value (NCI-H358; [9]) was 4.55. The HSA volume (NCI-H358; [9]) was 2.53, the “Loewe Volume” value (NCI-H358; [9]) was 2.07 and the “Synergy Score” value (NCI-H358; [9]) was 3.63. For the same compound, the “Response Area” value (NCI-H358; NCl-H358, Lung, Additional Single Agent Responses (inhibition, % I), 72 h) was 3.87, the “Response Area” value (NCI-H358; NCl-H358, Lung, growth inhibition (GI), AUC, single agent, 72 h) was 5.18 and the “Best CI” value (NCI-H358; [10]) was 0.51. The “Best CI Level” value (NCI-H358; [10]) was 20, the “Bliss Volume” value (NCI-H358; [10]) was −0.42 and the HSA volume (NCI-H358; [10]) was 1.90. The “Loewe Volume” value (NCI-H358; [10]) was 1.20, the “Synergy Score” value (NCI-H358; [10]) was 1.07 and the “Best CI” value (HCC1171; [11]) was 0.26. For the same compound, the “Bliss Volume” value (HCC1171; [11]) was 3.26, the HSA volume (HCC1171; [11]) was 4.61 and the “Loewe Volume” value (HCC1171; [11]) was 6.02. For the same compound, the “Synergy Score” value (HCC1171; [11]) was 7.42, the EC50 (HCC1171; [12]) was 2.8 nM and the “Response Area” value (HCC1171; [12]) was 1.99. For the same compound, the Emax (HCC1171; HCC1171, Lung, Additional Single Agent Responses, 72 h, read-out: Max Response (% I)) was 48%, the GI50 (HCC1171; HCC1171, Lung, growth inhibition (GI) curve, single agent, 72 h) was 5.5 nM and the “Response Area” value (HCC1171; HCC1171, Lung, growth inhibition (GI), AUC, single agent, 72 h) was 3.50. The Emax (HCC1171; HCC1171, Lung, growth inhibition (GI), single agent, 72 h, read-out: Max Response (% GI)) was 85%, the “Best CI” value (HCC1171; [13]) was 0.22 and the “Bliss Volume” value (HCC1171; [13]) was −0.99. The HSA volume (HCC1171; [13]) was 2.26, the “Loewe Volume” value (HCC1171; [13]) was 3.06 and the “Synergy Score” value (HCC1171; [13]) was 2.15. It also gave a Best CI Level (HCC1171; enhancer combined with MEI-522 (Voruciclib), HCC1171 (Lung), 72 hours, inhibition data, unit assumed) of 50%, an EC50 (TOV-21G; Homo sapiens, TOV21G, TOV-21G, Ovary, Additional Single Agent Responses (inhibition, % I), 72 h) of 3000 nM and an Emax (TOV-21G; Homo sapiens, TOV21G, TOV-21G, Ovary, Additional Single Agent Responses, 72 h, read-out: Max Response (% I)) of 7%. For the same compound, the Emax (TOV-21G; Homo sapiens, TOV21G, TOV-21G, Ovary, growth inhibition (GI), single agent, 72 h, read-out: Max Response (% GI)) was 9%, the “Best CI” value (TOV-21G; [14]) was 0.37 and the “Bliss Volume” value (TOV-21G; [14]) was 2.49. The HSA volume (TOV-21G; [14]) was −6.11, the “Loewe Volume” value (TOV-21G; [14]) was −3.64 and the “Synergy Score” value (TOV-21G; [14]) was 0.49. The “Response Area” value (TOV-21G; TOV-21G, Ovary, Additional Single Agent Responses (inhibition, % I), 72 h) was −0.01, the “Response Area” value (TOV-21G; TOV-21G, Ovary, growth inhibition (GI), AUC, single agent, 72 h) was −0.01 and the “Best CI” value (TOV-21G; [15]) was 0.45. The “Best CI Level” value (TOV-21G; [15]) was 20, the “Bliss Volume” value (TOV-21G; [15]) was 2.55 and the HSA volume (TOV-21G; [15]) was −4.28. The “Loewe Volume” value (TOV-21G; [15]) was −2.46 and the “Synergy Score” value (TOV-21G; [15]) was 0.33.
